From patent US8435978B2, “Substituted sulfonamide compounds” (Gruenenthal GmbH, priority 2006, dated 2013)
Counter-ions that a name gives are not always drawn.

Tests used:
human B1R receptor = biological target: T1, human B1R receptor (Homo sapiens, UniProt P46663); test: Functional study on the bradykinin receptor 1 (B1R), FLIPR Ca2+ assay, hB1R cells; format: cell-based; settings: agonist Lys-Des-Arg9-bradykinin 0.5 nM, % inhibition compared with the maximum achievable inhibition; for inhibition at 10 µM: CHO-K1, test substance 10 μM, read-out: B1R Antagonism, human [10 μM] % Inhibition
T1 construct: host or cells: CHO K1 cells (Chinese hamster ovary), stably transfected
T1 sequence (P46663 1-353): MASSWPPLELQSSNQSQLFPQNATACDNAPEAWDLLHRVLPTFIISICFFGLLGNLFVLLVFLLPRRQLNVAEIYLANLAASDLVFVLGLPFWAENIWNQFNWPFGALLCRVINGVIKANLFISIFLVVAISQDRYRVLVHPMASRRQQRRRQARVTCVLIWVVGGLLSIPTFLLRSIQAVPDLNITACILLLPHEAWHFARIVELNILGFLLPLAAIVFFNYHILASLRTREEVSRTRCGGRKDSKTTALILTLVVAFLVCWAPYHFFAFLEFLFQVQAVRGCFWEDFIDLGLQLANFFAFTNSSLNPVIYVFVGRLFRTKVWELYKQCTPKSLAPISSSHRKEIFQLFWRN
How it was run: (§1)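 FLIPR Ca2+ read-out (Fluo-4, peak fluorescence) in stably transfected CHO K1 cells. Compounds at 10 μM, then 10 min later agonist challenge: human B1R with Lys-Des-Arg9-bradykinin 0.5 nM, rat B1R with Des-Arg9-bradykinin 100 nM; reported as % activation or % of maximal inhibition.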

B1R receptor of the rat = biological target: T2, B1R receptor of the rat (Rattus norvegicus, UniProt P97583); test: Functional study on the bradykinin receptor 1 (B1R), FLIPR Ca2+ assay, rB1R cells; format: cell-based; settings: agonist Des-Arg9-bradykinin 100 nM, % inhibition compared with the maximum achievable inhibition; for inhibition at 10 µM: CHO-K1, test substance 10 μM, read-out: B1R Antagonism, rat [10 μM] % Inhibition
T2 construct: host or cells: CHO K1 cells (Chinese hamster ovary), stably transfected
T2 sequence (P97583 1-337): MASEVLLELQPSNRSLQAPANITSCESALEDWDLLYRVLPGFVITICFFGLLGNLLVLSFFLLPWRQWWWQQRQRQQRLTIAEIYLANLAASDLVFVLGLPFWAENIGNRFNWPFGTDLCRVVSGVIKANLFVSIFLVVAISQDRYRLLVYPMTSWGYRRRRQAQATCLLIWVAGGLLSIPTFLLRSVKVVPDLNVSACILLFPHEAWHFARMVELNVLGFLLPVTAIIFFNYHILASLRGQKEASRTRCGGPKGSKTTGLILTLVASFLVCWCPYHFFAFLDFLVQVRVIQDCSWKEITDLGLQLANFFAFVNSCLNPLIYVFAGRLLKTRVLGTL
How it was run: as §1

inhibition at 10 µM (human B1R receptor) [%]	inhibition at 10 µM (B1R receptor of the rat) [%]	B1R Antagonism, human [10 μM] % Inhibition (human B1R receptor; test substance 10 μM, hB1R CHO K1 cells) [%]	B1R Antagonism, rat [10 μM] % Inhibition (B1R receptor of the rat; test substance 10 μM, rB1R CHO K1 cells) [%]	Structure (SMILES)
95.5	101	–	–	COc1cc(C)c(S(=O)(=O)N2CCCC2COCC(=O)N2CCN(c3cccc(Cl)c3)CC2)c(C)c1 (stereo not drawn) [Example 346, 1-(4-(3-chlorophenyl)piperazin-1-yl)-2-((1-(4-methoxy-2,6-dimethylphenylsulfonyl)pyrrolidin-2-yl)methoxy)ethanone]
104	100	–	–	CN1CCC(N2CCN(C(=O)COCC3CCCCN3S(=O)(=O)c3ccc4c(c3)CCCC4)CC2)CC1 (stereo not drawn) [Example 179, 1-(4-(1-methylpiperidin-4-yl)piperazin-1-yl)-2-((1-(5,6,7,8-tetrahydronaphthalen-2-ylsulfonyl)piperidin-2-yl)methoxy)ethanone dihydrochloride]
62.4	0	–	–	O=C(COCC1CCCCN1S(=O)(=O)c1ccc(Cl)c(Cl)c1)N1CCC(Cc2ccccc2)CC1 (stereo not drawn) [Example 57, 1-(4-benzyl-piperidin-1-yl)-2-[1-(3,4-dichloro-phenylsulfonyl)-piperidin-2-ylmethoxy]-ethanone]
95.9	99.6	–	–	COc1cc(C)c(S(=O)(=O)N2CCCCC2COCC(=O)N2CCC(c3ccccn3)C2)c(C)c1 (stereo not drawn) [Example 236, 2-((1-(4-methoxy-2,6-dimethylphenylsulfonyl)piperidin-2-yl)methoxy)-1-(3-(pyridin-2-yl)pyrrolidin-1-yl)ethanone]
18.7	98.8	–	–	COc1cc(C)c(S(=O)(=O)N2CCCCC2COCC(=O)Nc2nccc3ccccc23)c(C)c1 (stereo not drawn) [Example 370, N-(isoquinolin-1-yl)-2-((1-(4-methoxy-2,6-dimethylphenylsulfonyl)piperidin-2-yl)methoxy)acetamide]
6.23	99.6	–	–	COc1cc(C)c(S(=O)(=O)N2CCCCC2COCC(=O)NCc2ccccc2N2CCOCC2)c(C)c1 (stereo not drawn) [Example 435, 2-((1-(4-methoxy-2,6-dimethylphenylsulfonyl)piperidin-2-yl)methoxy)-N-(2-morpholinobenzyl)acetamide]
90.4	102	–	–	COc1cc(C)c(S(=O)(=O)N2CCCC2COCC(=O)N2CCCCCC2c2ccc(N(C)C)cc2)c(C)c1 (stereo not drawn) [Example 475, 1-(2-(4-(dimethylamino)phenyl)azepan-1-yl)-2-((1-(4-methoxy-2,6-dimethylphenylsulfonyl)pyrrolidin-2-yl)methoxy)ethanone]
102	93.1	–	–	COc1cc(C)c(S(=O)(=O)N2Cc3ccccc3CC2COCC(=O)N2CCC(N3CCN(C)CC3)CC2)c(C)c1C (stereo not drawn) [Example 275, 2-((2-(4-methoxy-2,3,6-trimethylphenylsulfonyl)-1,2,3,4-tetrahydroisoquinolin-3-yl)methoxy)-1-(4-(4-methylpiperazin-1-yl)piperidin-1-yl)ethanone]
12.1	13	–	–	O=C(COCC1CCCCN1S(=O)(=O)c1cccc(Br)c1)N1CCN(c2ccncc2)CC1 (stereo not drawn) [Example 122, 2-((1-(3-bromophenylsulfonyl)piperidin-2-yl)methoxy)-1-(4-(pyridin-4-yl)piperazin-1-yl)ethanone]
26.9	94.5	–	–	COc1ccc(C2CCCCN2C(=O)COCC2CCCCN2S(=O)(=O)c2c(C)cc(C)cc2C)cn1 (stereo not drawn) [Example 227, 2-((1-(mesitylsulfonyl)piperidin-2-yl)methoxy)-1-(2-(6-methoxypyridin-3-yl)piperidin-1-yl)ethanone]
103	98.8	–	–	CN1CCC(N2CCN(C(=O)COCC3CCc4ccccc4N3S(=O)(=O)c3ccc4ccccc4c3)CC2)CC1 (stereo not drawn) [Example 203, 1-(4-(1-methylpiperidin-4-yl)piperazin-1-yl)-2-((1-(naphthalen-2-ylsulfonyl)-1,2,3,4-tetrahydroquinolin-2-yl)methoxy)ethanone]
48.4	107	–	–	COc1cc(C)c(S(=O)(=O)N2CCCCC2COCC(=O)Nc2cc(C)[nH]n2)c(C)c1 (stereo not drawn) [Example 535, 2-((1-(4-methoxy-2,6-dimethylphenylsulfonyl)piperidin-2-yl)methoxy)-N-(5-methyl-1H-pyrazol-3-yl)acetamide]
62.7	0	–	–	O=C(COCC1CCCCN1S(=O)(=O)c1ccc(Cl)c(Cl)c1)N1CCN(c2ccccc2)CC1 (stereo not drawn) [Example 56, 2-[1-(3,4-dichloro-phenylsulfonyl)-piperidin-2-ylmethoxy]-1-(4-phenyl-piperazin-1-yl)-ethanone]
–	–	59.7	30.54	O=C(COCC1CCCCN1S(=O)(=O)c1cccc2ccccc12)NCc1ccc(CN2CCOCC2)cc1 (stereo not drawn) [Example 61, N-(4-morpholin-4-ylmethyl-benzyl)-2-[1-(naphthyl-1-sulfonyl)-piperidin-2-ylmethoxy]-acetamide]
102	86.7	–	–	CN1CCN(C2CCN(C(=O)COCC3Cc4ccccc4CN3S(=O)(=O)c3ccc(Cl)cc3Cl)CC2)CC1 (stereo not drawn) [Example 233, 2-((2-(2,4-dichlorophenylsulfonyl)-1,2,3,4-tetrahydroisoquinolin-3-yl)methoxy)-1-(4-(4-methylpiperazin-1-yl)piperidin-1-yl)ethanone]
107	101	–	–	CC(C)N(CCN1CCN(C(=O)COCC2CCCN2S(=O)(=O)c2c(Cl)cc(Cl)cc2Cl)CC1)C(C)C (stereo not drawn) [Example 333, 1-(4-(2-(diisopropylamino)ethyl)piperazin-1-yl)-2-((1-(2,4,6-trichlorophenylsulfonyl)pyrrolidin-2-yl)methoxy)ethanone]
70.4	101	–	–	O=C(COCC1CCCCN1S(=O)(=O)c1c(Cl)cccc1Cl)N(Cc1ccccc1)c1ccccn1 (stereo not drawn) [Example 486, N-benzyl-2-((1-(2,6-dichlorophenylsulfonyl)piperidin-2-yl)methoxy)-N-(pyridin-2-yl)acetamide]
17.3	107	–	–	COc1cc(C)c(S(=O)(=O)N2CCCCC2COCC(=O)NCc2ccc(N(C)C)cc2)c(C)c1 (stereo not drawn) [Example 577, N-(4-(dimethylamino)benzyl)-2-((1-(4-methoxy-2,6-dimethylphenylsulfonyl)piperidin-2-yl)methoxy)acetamide]
99	99	–	–	CN1CCC(N2CCN(C(=O)COCC3CCCCN3S(=O)(=O)c3c(Cl)cc(Br)cc3Cl)CC2)CC1 (stereo not drawn) [Example 160, 2-((1-(4-bromo-2,6-dichlorophenylsulfonyl)piperidin-2-yl)methoxy)-1-(4-(1-methylpiperidin-4-yl)piperazin-1-yl)ethanone dihydrochloride]
40.2	102	–	–	COc1cc(C)c(S(=O)(=O)N2CCCCC2COCC(=O)N2CCN(Cc3c(C)cc(C)cc3C)CC2)c(C)c1 (stereo not drawn) [Example 383, 2-((1-(4-methoxy-2,6-dimethylphenylsulfonyl)piperidin-2-yl)methoxy)-1-(4-(2,4,6-trimethylbenzyl)piperazin-1-yl)ethanone]
99.4	100	–	–	Cc1cc(Br)cc(C)c1S(=O)(=O)N1CCCCC1COCC(=O)N1CCC(CCN2CCCC2)CC1 (stereo not drawn) [Example 149, 2-((1-(4-bromo-2,6-dimethylphenylsulfonyl)piperidin-2-yl)methoxy)-1-(4-(2-(pyrrolidin-1-yl)ethyl)piperidin-1-yl)ethanone]
